In one data set the target is murine FAP (Mus musculus (Mouse), UniProt P97321). Nature of the data set: Inhibition assay of FAP (fluorogenic substrate Z-Gly-Pro-AMC). The data set is classed as biochemical. The settings on record: substrate Z-Gly-Pro-AMC 20 μM; 66 pM murine FAP; room temperature. The method, then:
(§1) Inhibition assay of FAP. The compounds were precisely weighed (range between […]) on a micro-scale (HuberLab, Sartorius QUINTIX35-1S) and dissolved in DMSO to prepare stock solutions at 1 mM. Stock solutions were further diluted with FAP activation buffer (50 mM Tris, 100 mM NaCl, 1 mM EDTA, pH=7.4) to a final DMSO concentration of 10% v/v. 10 μL of each inhibitor were serially diluted in a 384 well plate (grenier-bio one, PS, F-bottom, Black, non-binding) with 10 μL of 10% DMSO FAP buffer (1:1 dilution). FAP (human and murine) was diluted to the desired concentration with FAP activation buffer and added to the serial dilution of inhibitor (10 μL for each well). Each protein-inhibitor solution was incubated for 30 minutes at room temperature. Each measurement was performed with an enzyme concentration (FAP) lower than the expected IC50. A 60 μM solution of substrate (Z-Gly-Pro-AMC) in FAP activation buffer (<1% DMSO) was added to the plate (10 μL for each well). The reaction was incubated from 1 minute to 48 hours (see FIG. 2) at room temperature (22° C.-25° C.). The emission was read at 465 nm (excitation wavelength 360 nm) for 40 μs by Tecan Spark (s.n. 1808004082). The following controls were added to each row: positive control (no inhibitor control, 10 μL of 10% DMSO FAP buffer+10 μL of FAP solution+10 μL of substrate solution), negative control (no protein control, 10 μL of 10% DMSO FAP buffer+10 μL of FAP activation buffer+10 μL of substrate solution).
(§2) Normalization of values: The “% of FAP activity” can be calculated with the following formula:
(§3) FIG. 3: Inhibition assay performed with compounds 1, 2, 3, 4, 5, 6, 8 against a) 66 pM human FAP and b) 66 pM murine FAP. The concentration of substrate (Z-Gly-Pro-AMC) was kept constant=20 μM. The assay was incubated for 48 hours at 22.6° C. Error bars display SEM.
(§4) FIG. 4: a) Inhibition assay performed with compounds 8, 9 and 10 against 66 pM human FAP. The assay was incubated for 17 hours at 25° C. b) Inhibition assay performed with compound 9 against 66 pM murine FAP. The assay was incubated for 17 hours at 25° C. In both assays the concentration of substrate (Z-Gly-Pro-AMC) was kept constant=20 μM. Error bars display SEM.

The nature of the next data set: Serum stability. The data set is classed as in vitro ADME. The settings on record: mouse, in vitro, time points 0 to 48 h. On the procedure:
In two separate Eppendorf, 4 μL of compound 28 and 38 (1 mM solution in DMSO) and 36 μL of serum for each time point were mixed. After each specific time point, 40 μL of mixture were freezed in liquid nitrogen and then stored at −20° C. Once all the samples were collected, samples were defrosted at 24° C. and 300 μL of ACN were added. The samples were then centrifuged at 10′000 RPM for 5 minutes. 200 μL of the supernatant were transferred to a second Eppendorf tube and dried under vacuum for 2 h. The residue was carefully resuspended in 30 μL of mQ Water:acetonitrile=9:1 mixture (with 0.1% v/v of formic acid) and analysed by LC-MS. Each time point was performed in triplicate. The percentage of intact […] was determined extracting the area of the UV peak. The obtained values were normalized on the average area at time point corresponding to 0 hours.

A further data set concerns the target human FAP (Homo sapiens (Human), UniProt Q12884). Nature of the data set: Inhibition assay of FAP (fluorogenic substrate Z-Gly-Pro-AMC). Type of data set: biochemical. The settings on record: substrate Z-Gly-Pro-AMC 20 μM; FAP concentration lower than expected IC50 (66 pM in FIG. 3, 4); room temperature; read-out: IC50 vs human FAP. On the procedure:
as §1, §2
The concentration of substrate (Z-Gly-Pro-AMC) was kept constant=20 μM. Dashed lines corresponds to sets of data with unstable fitting. […] Error bars display SEM.
as §3, §4
FIG. 19. A: Chemical structures and corresponding IC50(hFAP) values of compounds according to the present invention. B: Chemical structures and corresponding IC50 values of compounds where the propargyl moiety at position AA^2 was replaced by different groups (Me, iPr, Bn) using both R and S stereoisomers. The sites of modification have been highlighted with arrows. Each measurement was performed with a FAP concentration lower than the expected IC50. Depending on FAP concentration, the fluorescence was measured between 10 minutes and 48 h (at room temperature) after the addition of the fluorogenic substrate (Z-Gly-Pro-AMC). IC50 values and standard errors were calculated using “[Inhibitor] vs. response—Variable slope (four parameters)” fitting (Graphpad Prism). […] By introducing the quinoline-based moiety, a single-digit nanomolar inhibitor was obtained. […] The replacement of propargylglycine with S-phenylalanine improved potency of the lead compound of additional ˜2-folds (compound 14).

A value given as a limit tells only on which side of the number the result lay.

By IC50 is commonly meant the concentration that gives 50% inhibition. For orientation: half-life means how long it takes for the measured level to halve. Read a high half-life as slow loss.

Sequence of murine FAP (P97321 whole entry): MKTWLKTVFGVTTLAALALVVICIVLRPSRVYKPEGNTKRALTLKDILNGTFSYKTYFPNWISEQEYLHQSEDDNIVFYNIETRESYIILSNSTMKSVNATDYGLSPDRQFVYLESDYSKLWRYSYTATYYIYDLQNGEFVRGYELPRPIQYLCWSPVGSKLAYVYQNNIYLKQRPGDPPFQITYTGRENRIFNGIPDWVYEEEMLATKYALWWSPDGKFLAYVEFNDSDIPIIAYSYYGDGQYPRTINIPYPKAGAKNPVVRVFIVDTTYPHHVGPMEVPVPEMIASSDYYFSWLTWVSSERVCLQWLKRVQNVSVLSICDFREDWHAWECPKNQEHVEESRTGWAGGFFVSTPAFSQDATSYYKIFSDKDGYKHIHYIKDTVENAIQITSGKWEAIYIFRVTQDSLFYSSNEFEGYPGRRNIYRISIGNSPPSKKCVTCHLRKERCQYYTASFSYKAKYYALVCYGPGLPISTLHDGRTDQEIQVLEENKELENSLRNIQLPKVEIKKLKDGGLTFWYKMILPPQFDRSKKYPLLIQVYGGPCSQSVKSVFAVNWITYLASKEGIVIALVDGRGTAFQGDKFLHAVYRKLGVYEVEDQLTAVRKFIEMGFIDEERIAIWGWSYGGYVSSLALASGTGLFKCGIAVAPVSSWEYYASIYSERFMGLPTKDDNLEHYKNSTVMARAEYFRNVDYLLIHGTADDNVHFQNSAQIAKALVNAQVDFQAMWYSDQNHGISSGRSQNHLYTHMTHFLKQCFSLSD
Sequence of human FAP (Q12884 whole entry): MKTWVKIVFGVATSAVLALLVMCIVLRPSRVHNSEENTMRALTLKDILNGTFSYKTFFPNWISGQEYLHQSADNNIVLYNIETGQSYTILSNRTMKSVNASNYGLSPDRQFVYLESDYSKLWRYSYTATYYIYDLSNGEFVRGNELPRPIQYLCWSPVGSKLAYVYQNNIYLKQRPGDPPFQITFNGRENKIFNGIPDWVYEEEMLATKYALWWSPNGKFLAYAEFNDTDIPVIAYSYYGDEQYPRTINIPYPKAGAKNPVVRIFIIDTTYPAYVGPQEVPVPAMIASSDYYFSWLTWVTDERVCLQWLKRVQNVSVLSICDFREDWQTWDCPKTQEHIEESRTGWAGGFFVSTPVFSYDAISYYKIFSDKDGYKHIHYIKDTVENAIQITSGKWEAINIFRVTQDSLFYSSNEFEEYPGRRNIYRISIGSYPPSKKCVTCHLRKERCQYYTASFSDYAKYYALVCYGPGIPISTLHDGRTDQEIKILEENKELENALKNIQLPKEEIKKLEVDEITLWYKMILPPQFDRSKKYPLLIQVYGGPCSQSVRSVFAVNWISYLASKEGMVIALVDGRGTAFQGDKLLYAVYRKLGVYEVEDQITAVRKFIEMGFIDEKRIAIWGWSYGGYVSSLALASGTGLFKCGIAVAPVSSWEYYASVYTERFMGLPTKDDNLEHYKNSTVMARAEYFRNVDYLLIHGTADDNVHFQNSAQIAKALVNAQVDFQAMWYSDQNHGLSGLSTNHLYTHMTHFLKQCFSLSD

Regarding `CN(C)C(=N)NCCCC(NC(=O)CCC(=O)Nc1cccc2c(C(=O)NCC(=O)N3CC(F)(F)C[C@H]3C#N)ccnc12)C(=O)N[C@@H](Cc1ccccc1)C(=O)NCCNC(=O)CCC(C(=O)O)N1CCN(CC(=O)O)CCN(CC(=O)O)CCN(CC(=O)O)CC1` (stereo in doubt) [Compound 28], the IC50 against murine FAP was determined as 0.00479 nM; at human FAP, 0.03 nM. In the data set “Serum stability”, this compound gave a half-life at 100 µM above 48 h.

The record behind these values is patent publication US20250177582A1, “HIGH-AFFINITY LIGANDS OF FIBROBLAST ACTIVATION PROTEIN FOR TARGETED DELIVERY APPLICATIONS” (PHILOCHEM AG, priority 2022, published 2025).
